The subject of experiment [1] is peripheric mononuclear cells (MNC) or T lymphocytes. To be noted: simultaneous and separate administration of inhibitors of DP IV and APN; cited from earlier work.
Another experiment relates to hippocampal neurons. The experiment can be described thus: Neuroprotection in organotypical hippocampus slices after 40 min oxygen and glucose deprivation (propidium iodide fluorescence). Type of experiment: cell-based, rat. To be noted: exclusively actinonine (10 μm), 24 h before, during and 24 h after ischemia; n=5 experiments. As for the experimental part: FIG. 2: Protective effect of inhibitors of DP IV (I63) and APN (actinonine) on the survival of hippocampal neurons after a transient deprivation of oxygen and glucose: There are shown in the FIG. transmission photographs (respective left sides) and fluorescence photographs (respective right sides) of hippocampus slices 24 h after an experimental ischemia. The intensity of the red fluorescence corresponds to the neuronal cell damage (B, D). The slices shown in FIGS. 2A and 2B were subjected to a 40 min deprivation of oxygen and glucose in the absence of DP IV or APN inhibitors. […] The protective effect occurring at a simultaneous application of I63 and actinonine is significant (P=0,0000; calculated by means of a two side heteroscedastic t test) and is about 62%.
Organotypical hippocampus slices were prepared and cultivated according to Striggow F et al. (Striggow, F, Riek M, Breder J, Henrich-Noak P, Reymann K G, Reiser G (2000). The protease thrombin is an endogenous mediator of hippocampal neuroprotection against ischemia at low concentrations but causes degeneration at high concentrations. Proc. Natl. Acad. Sci. (USA) 97: 2264-2269). […] Only after said time, there occurrs a characteristic red fluorescence, the intensity of which is proportional to the neuronal cell damage. […]

Results on two molecules are retold here after patent publication US20040147434A1, “Use of enzyme inhibitors of the dipeptidypeptidase iv (ec3.3.14.5) in addition to the aminopeptidase n (ec 3.4.11.2), individually or in a combination thereof, and pharmaceutical preparations thereof for the prevention and/or therapy of ischaemia-caused acute and chronic neurodegenerative process …” (priority 2001, published 2004).

For the molecule `N[C@@H](CCCCNC(=O)OCc1ccc([N+](=O)[O-])cc1)C(=O)N1CCSC1` [I49, Lys[Z(NO2)] thiazolidide], the “DNA synthesis and proliferation of human immune cells” value in experiment [1] is reported as “inhibited”.

On to `CCCCC[C@H](CC(=O)NO)C(=O)N[C@H](C(=O)N1CCC[C@H]1CO)C(C)C` [actinonine], for which the “DNA synthesis and proliferation of human immune cells” value in experiment [1] is recorded as “inhibited”. Moreover, the “protective effect on the survival of hippocampal neurons after transient ischemia” value in the experiment with hippocampal neurons is listed as “about 34%”.
